Results taken from patent publication US20090179638A1, “ASSAY FOR IDENTIFYING INHIBITORS OF NEURONAL APOPTOTIC PATHWAYS” (AEGERA THERAPEUTICS INC., priority 2006, published 2009).
“Also recorded” adds a separate entry of the source. One block for each molecule: values may come before it.

What was measured:
HSP90 [1] = assay: Photoaffinity-biotin labelling of PC12 protein extracts; assay type: binding; conditions: 2 uM, 3 hours, UV 30 minutes, approximately 90 kDal band
Protocol: HSP90 was also identified using the photoaffinity-biotinylated probe, compound 7. PC12 protein extracts were separated by SDS page. SDS was removed by incubation in 20% isopropanol and proteins were renatured by incubation in DTT and guanidine HCl. The gel was then incubated for 3 hours with 2 uM compound 7 and then photoactivated for 30 minutes using a UV crosslinker. Proteins were then transferred to nitrocellulose and biotin was detected with HRP-conjugated strepavidin.

PC12^rtTA cells = assay: p75NTR- or NRAGE-induced cell death of PC12rtTA cells (LDH release assay); assay type: cell-based; conditions: increasing concentrations, 40 hours, LDH
Protocol: FIGS. 2A and 2B are graphs showing that compound 1 inhibits p75NTR or NRAGE induced JNK activation and cell death. Compound 1 inhibits NRAGE (A) or p75NTR (B) mediated cell death. PC12^rtTA cells were infected with recombinant adenoviruses expressing full-length NRAGE (AdNRG) at 5 MOI, full length p75NTR (Adp75) at 50 or 100 MOI, or the control protein β-galactosidase (AdLacZ) (at 5 MOI in (A) and 50 MOI in (B)). At time of infection, the cells were treated with an increasing concentration of compound 1, or with vehicle alone, as indicated. After 40 hours, cells were assayed for death using the lactate dehydrogenase (LDH) assay; untreated cells (Un) and cells treated with 1% Triton X-100 (Tx) were used to delineate the output range of the assay. Results are normalized relative to those obtained with 1% Triton (Tx), and represent the mean±standard deviation of a representative experiment performed in triplicate (*=P<0.005 relative to no compound 1).
PC12^rtTA were infected with adenoviruses encoding p75NTR (Adp75), NRAGE (AdNRG), or as a control, LacZ (AdLacZ), and were concurrently exposed to increasing concentrations of compound 1 for a period of 40 hours. Cell death was assessed using an LDH release assay. […] Treatment with 40 μM compound 1 reduced p75NTR- or NRAGE-induced cell death by greater than 90%.
(§1) Cell culture, infection, transfection and immunoblotting. Sympathetic neurons were maintained and deprived of NGF as previously described (Bamji et al., 1998; Ma et al., 1992). PC12^rtTA cells were maintained and infected as previously described (Majdan et al., 1997; Salehi et al., 2002); for NRAGE, […] doxycycline was added to all plates at time of infection. Wildtype and HSF1 nullizygous immortalized mouse embryonic fibroblasts (MEFs) were maintained in DMEM containing 10% fetal calf serum, 1 μM β-mercaptoethanol, 1% non-essential amino acids, 1% L-glutamine, 1% antimycotic solution and 1% sodium pyruvate (all from GibcoBRL). Sympathetic neuron survival was assessed using the MTS assay according to the manufacturer's instructions (Promega). Analysis of PC12 cell death was determined using a lactate dehydrogenase (LDH) assay (Roche) as per the manufacturer's instructions. Transfections using plasmids or RNAi were performed using Lipofectamine 2000. Immunoblotting was performed as previously described (Majdan et al., 1997; Salehi et al., 2002).

HSP70 = assay: HSP protein expression in PC12 / PC12rtTA cells (immunoblot); assay type: cell-based; conditions: PC12rtTA cells infected with AdNRG, Adp75 or AdLacZ, 30 hours (FIG. 6A)
Protocol: FIGS. 4A-4C are photographs of Western blots which illustrate that compound 1 treatment of PC12 cells induces expression of HSP70. A: PC12 cells were infected with 5 MOI of AdNRG (NRG) or AdLacZ (LacZ) as indicated. Cells were left untreated (0) or treated with 40 μM compound 1 at time of infection (30), one hour before lysis (1), or at both times (30+1). Cells were lysed thirty hours after infection, normalized for protein content, and analyzed for levels of phospho-Ser^63 c-Jun and total c-Jun, total JNK, IkBα, and NRAGE by immunoblotting. Lysates from untreated cells are indicated by ‘−’. B: PC12 cells were treated with the indicated concentrations of compound 1 for 18 hours and then lysed, normalized for protein content, and analyzed for levels of HSP70 by immunoblotting. Lysates from untreated cells are indicated by ‘−’. C: RNA isolated from PC12^rtTA cells treated with increasing concentrations of compound 1 for 18 hours was analyzed by rtPCR using primers specific to HSP70, HSP25, HSP90 or actin, as indicated. Experiments in Panel A and B were performed three times and that in Panel C was performed twice, with essentially identical results. D: PC12^rtTA cells were infected with AdNRG at 5 MOI, Adp75 at 50 MOI, or the control virus AdLacZ at 50 MOI. At time of infection, the cells were treated with increasing concentrations of compound 1, or with vehicle alone, as indicated. Thirty hours after infection, cells were lysed, normalized for protein content, and analyzed for levels of c-Jun phosphorylation, HSP70, HSP25, HSP40, NRAGE, p75NTR, JNK-1 and IkBα, as indicated.
FIGS. 6A, 6B and 6C are graphs and photographs of Western blots which illustrate that compound 1 analogues inhibit JNK activation and induce expression of HSP70. A: PC12^rtTA cells were infected with 5 MOI of AdNRG, 50 MOI of Adp75 or 50 MOI of the control virus AdLacZ. At time of infection, the cells were treated with an increasing concentrations of compound 1, or its analogues, compound 2, compound 3, compound 4, or with vehicle alone, as indicated. Thirty hours after infection, cells were lysed, normalized for protein levels, and analyzed for levels of HSP70, HSP25 and JNK-1, as indicated. B: PC12^rtTA cells were treated as above and after 40 hours infection were assayed for death using the lactate dehydrogenase (LDH) assay. Results are normalized relative to those obtained with 1% Triton, and represent the mean±standard deviation of a representative experiment performed in triplicate (*=P<0.025 relative to ‘0’ for each compound concentration). C: PC12^rtTA cells were infected with 50 MOI of LacZ or 5 MOI of AdNRG50 and at the time of infection, were treated with 40 μM compound 1, or its analogues, compound 2, compound 3, compound 4, or with vehicle alone, as indicated. Thirty hours after infection, cells were lysed, normalized for protein levels, and were analyzed for phosphorylated c-Jun, total c-Jun, NRAGE and JNK-1, as indicated. Experiments in Panel A and C were performed twice and that in B were performed twice, with essentially identical results.
To address this, SCG neurons were treated with compound 1 for 18 hours then lysed and assessed for HSP70 levels by immunoblot. Uninfected PC12rtTA cells were treated in a similar manner. […] To test if the accumulation of HSP70 induced by compound 1 reflected increased steady state levels of its mRNA, RNA was isolated from PC12 cells treated with increasing concentrations of compound 1 for 18 hours and the cell lysates subjected to semi-quantitative rtPCR. […] HSP protein levels were also assessed in PC12rtTA cells infected with AdLacZ, Adp75, or AdNRG, and at the same time, exposed to compound 1.

SCG neurons = assay: NGF-withdrawal induced cell death of SCG neurons (MTS assay); assay type: cell-based, rat; conditions: SCG neurons withdrawn from NGF, 48 hours
Protocol: FIG. 1 is a graph showing that compound 1 inhibits NGF-withdrawal induced cell death. Cultures of rat SCG neurons (see Materials and Methods) initially maintained in 10 ng/ml of NGF were withdrawn from NGF and maintained in media containing compound 1 at the concentrations indicated for 48 hours. Cellular viability was assayed using an MTS assay. (*=P<0.01 relative to no compound 1). Experiments were performed three times with identical results.
Survival of neonatal primary sympathetic neurons is dependent on trophic support provided by Neuronal Growth Factor (NGF) (reviewed in (Young et al., 2004)).
as §1

[2] = full body radiography
Protocol: The induction of HSP70 was investigated in vivo by the treatment of rats with a single dose of Na-19 (SC, 30 mg/kg).

HSP90 protein = assay: STD 1H NMR spectroscopy binding to HSP90; conditions: compound to protein ratio approximately 100:1, 20 mM sodium phosphate buffer pH 6.7
Protocol: (§2) FIG. 9 is a STD 1H NMR Spectrum of Compound 1 and 20 with HSP90 protein. STD NMR experiments were performed at 19° C. on a Varian INNOVA 500 MHz spectrometer equipped with a triple resonance HCN cold probe. A 1D saturation transfer difference pulse sequence with internal subtraction via phase cycling was employed. Residual HDO signal was removed using a W5 WATERGATE pulse sequence, with a […] interpulse delay. On resonance irradiation of the protein was performed at −0.5 ppm, with off-resonance irradiation at 34 ppm. The irradiation power was (g/2p)B1=93 Hz applied through a train of 50 ms eburp1 pulses with a 1 ms delay between the pulses. The total presaturation time was 5.1 s. The relaxation delay was set to 0.1 s. A 30 ms spin-lock pulse with a strength of (g/2p)B1=4600 Hz was used to eliminate background protein signals. The total number of scans was between 1536, with a sweep width of 16 ppm. Spectra were multiplied by a 1 Hz exponential line-broadening function prior to Fourier transform. Compounds 1 (85 uM) and 20 (85 uM) and HSP90 protein (0.85 uM) in 20 mM sodium phosphate buffer (pH 6.7) was used. A) STD 1H NMR spectrum, B) preset reference, and C) STD reference-no saturation/difference.
as §2, with “STD” for “FIG. 9 is a STD 1H NMR Spectrum of Compound 1 and 20 with HSP90 protein. STD”, “employed (Mayer and Meyer, JACS, 2001, 123, 6108-6117).” for “employed.”, “delay (Liu et. al, J. Magn. Res., 1998, 132, 125).” for “delay.”, “1536-2048,” for “1536,”, “transform.” for “transform. Compounds 1 (85 uM) and 20 (85 uM) and HSP90 protein (0.85 uM) in 20 mM sodium phosphate buffer (pH 6.7) was used. A) STD 1H NMR spectrum, B) preset reference, and C) STD reference-no saturation/difference.”
The compound to protein ratio was fixed at approximately 100:1 in 20 mM sodium phosphate buffer (pH 6.7). Compound 20 was used as a reference compound to compare binding affinities of various compounds to HSP90 by comparing the relative intensity of NOE effects in the spectra of compounds 1 and 20 (see FIG. 9), compounds 2 and 20, compounds 5 and 20, compounds 13 and 20, and compounds 15 and 20 (near equamolar quantities of each) in the presence of HSP90 protein. Using the NOE signals for the imidazole proton, and comparing peak heights, the relative kd of the compound pairs were compared (see Meyer and Peters, T. Angew. Chem. Int. Ed. 2003, 42, 864). The kds of the compound pairs ranged from 1:1 to 8:1. These differences in binding affinities correlated to the potency of each respective compound's ability to rescue SCG neurons from NGF withdrawal as previously reported.

HSP90 [3] = assay: ATP-Sepharose interaction assay; assay type: binding; conditions: purified HSP90 pre-incubated with substance
Protocol: Bound HSP90 was eluted HSP90 content was determined by immunoblotting.
ATP-Sepharose Interaction Assays. These were performed essentially as described in (Grenert et al., 1997). […] 25 ul of ATP-sepharose beads were added and the reactions were incubated for 30 min at 30° C. After thorough washing with ice-cold incubation buffer, bound proteins were eluted in sample buffer and HSP90 content was determined by immunoblotting.

SMILES: [N-]=[N+]=Nc1c(F)c(F)c(-c2cn3nc(S(=O)(=O)CCNC(=O)CCCCC4SC[C@H]5NC(=O)N[C@@H]45)sc3n2)c(F)c1F (some centres unmarked) [Compound 7]
photoaffinity labelled band (HSP90 [1]): consistent with binding to HSP90

SMILES: NS(=O)(=O)c1nn2cc(-c3ccc(NC(=O)c4ccccc4)cc3)nc2s1 [Compound 4]
protection from Adp75- or AdNRG-induced cell death (PC12^rtTA cells): do not protect | HSP70 production (HSP70): failed to induce HSP70 | protection from NGF-withdrawal induced cell death (SCG neurons): do not protect

SMILES: [NH-]S(=O)(=O)c1nn2[14cH]c(-c3ccc(-c4cccc(C(F)(F)F)c4)cc3)nc2s1.[Na+] [[^14C]—Na-19, [5-^14C]-6-(3′-(trifluoromethyl)biphenyl-4-yl)imidazo[2,1-b]-1,3,4-thiadiazole-2-sulfonamide Mono Sodium Salt]
radioactivity in sciatic nerve [2]: significant, time dependent, radioactivity in sciatic nerve

SMILES: NS(=O)(=O)c1nn2cc(-c3ccc4c(c3)OCCCO4)nc2s1 [Compound 12]
binding to HSP90 protein by STD 1H NMR (HSP90 protein): directly bind

SMILES: Nc1ncnc2c1ncn2[C@@H]1O[C@H](COP(=O)(O)OP(=O)(O)OP(=O)(O)O)[C@@H](O)[C@H]1O [ATP, reference compound]
binding of HSP90 to gATP-Sepharose (HSP90 [3]): strongly inhibited

SMILES: NS(=O)(=O)c1nn2cc(-c3ccc(O)cc3)nc2s1 [Compound 5]
binding to HSP90 protein by STD 1H NMR (HSP90 protein): directly bind

SMILES: NS(=O)(=O)c1nn2cc(-c3ccc(OCC(=O)O)cc3)nc2s1 [Compound 3]
protection from Adp75- or AdNRG-induced cell death (PC12^rtTA cells): do not protect | HSP70 production (HSP70): failed to induce HSP70 | protection from NGF-withdrawal induced cell death (SCG neurons): do not protect

Continued, values first:

binding to HSP90 protein by STD 1H NMR (HSP90 protein): directly bind
SMILES: CC(C)(C)c1ccc(-c2cn3nc(S(N)(=O)=O)sc3n2)cc1 [Compound 15]

binding to HSP90 protein by STD 1H NMR (HSP90 protein): directly bind
SMILES: COCCOCCOc1ccc(-c2cn3nc(S(N)(=O)=O)sc3n2)cc1 [Compound 13]

binding to HSP90 protein by STD 1H NMR (HSP90 protein): Positive; also recorded: directly bind
SMILES: CC(=O)N1CCN(CC[S+]([O-])c2nn3cc(-c4ccccc4)nc3s2)CC1 (centres unmarked) [Compound 20]
